Results taken from patent US20060083784A1, “Amorphous pharmaceutical compositions” (SmithKline Beecham Corporation, priority 2002, published 2006).
Where “and” joins values, the source holds several entries; their conditions need not be identical. Equal entries are not always repeated.

How the values were obtained:
[1] = In vitro dissolution assay (modified USP 4 flow cell), Compound I samples; type: physicochemical; conditions: water and acetonitrile (8:2), 37° C., UV 275 nm, hemihydrate
Protocol: (§1) The equipment used for this procedure is a modified USP 4, the major differences being: 1. low volume cell. 2. stirred cell. 3. retaining filters which are adequate at retaining sub micron material. The total run time is 40 minutes. 2.5 mg of drug (weigh proportionally more formulated material).
(§2) Flow Cell Description: Swinnex filter assemblies obtained from Millipore, having 0.2 micron Cellulose Nitrate membranes. (Millipore, Mass.) as internal filters. The internal volume of the cell is approximately 2 ml. A Small PTFE stirrer customized to fit the Swinnex assembly (Radleys Lab Equipment Halfround Spinvane F37136) is used. The dissolution medium at a flow rate of 5 ml/min is used. The whole set up is placed at a thermostat of 37° C. The drug concentration is measured by passing the eluent through a UV detector having a flow cell dimension of 10 mm. The UV detection is carried out at an appropriate wavelength for the drug.
(§3) The experimentation is designed to evaluate drug dissolution rate. As such it is unlikely with poorly soluble drugs, and with water as the dissolution medium, that 100% of the drug will dissolve in the 40 minute duration of the test. To determine the extent of drug solubility over this period one collects all 200 ml of solution that elutes from the dissolution cell.
In vitro dissolution rates of samples 1.1, 1.2 and 1.3 were determined using the protocol described in the experimental section. The dissolution medium was a mixture of water and acetonitrile (8:2), and the wavelength used for drug detection 275 nm.

[2] = In vitro dissolution assay (modified USP 4 flow cell), Compound II samples; type: physicochemical; conditions: 0.1M HCl, 37° C., UV 244 nm
Protocol: as §1, §2
as §3, with “cell. Using a conventional UV spectrophotometer, this solution is compared against a reference solution of 2.5 or 4 mg of active agent dissolved in a suitable medium.” for “cell.”
In vitro dissolution rates of samples 2.1, 2.2, 2.3, 2.4, 2.5 and 2.6 were determined using the protocol described in the experimental section. The dissolution medium was 0.1M HCl, and the wavelength used for drug detection 244 nm. An unmilled lot of Compound II was used for comparison.

| Compound | % Drug Dissolved 10 min ([1]; 10 min) | % Drug Dissolved 20 min ([1]; 20 min) | % Drug Dissolved 30 min ([1]; 30 min) | % Drug Dissolved 40 min ([1]; 40 min) | % Drug Dissolved 10 min ([2]; 10 min) [%] | % Drug Dissolved 20 min ([2]; 20 min) [%] | % Drug Dissolved 30 min ([2]; 30 min) [%] | % Drug Dissolved 40 min ([2]; 40 min) [%] |
| --- | --- | --- | --- | --- | --- | --- | --- | --- |
| 6-Acetyl-3,4-dihydro-2,2-dimethyl-trans(+)-4-(4-fluorobenzoylamino)-2H-benzo[b]pyran-3-ol hemihydrate [Compound I] | 17.4% and 12.1% | 24.3% and 18.2% | 29.4% and 23.2% | 33.8% and 27.8% | – | – | – | – |
| CC[C@H](NC(=O)c1c(O)c(-c2ccccc2)nc2ccccc12)c1ccccc1.Cl [Compound II, 3-Hydroxy-2-phenyl-N-[(1S)-1-phenylpropyl]-4-quinolinecarboxamide monohydrochloride] | – | – | – | – | 3.8 | 6.3 | 8.5 | 10.7 |
